# Measured values as given in ChEMBL document CHEMBL4184333, “Expanding Benzoxazole-Based Inosine 5'-Monophosphate Dehydrogenase (IMPDH) Inhibitor Structure-Activity As Potential Antituberculosis Agents” (J Med Chem, 2018).
# System: Mycobacterium tuberculosis
# Assay: Antitubercular activity against Mycobacterium tuberculosis SRMV2.6 harboring IMPDH2 Y487C mutant using 7H9/ADC/Tween medium after 1 week in absence of guanine by Alamar blue assay
# Type: functional
row,Structure (SMILES),MIC
1,COc1ccc(OC(C)C(=O)Nc2ccc3oc(-c4ccncc4)nc3c2)cc1 (centres undefined),>100 µM
2,C[C@H](Nc1cccc(F)c1F)C(=O)Nc1ccc2oc(-c3ccc(C#N)cc3)nc2c1,>100 µM
3,CCOC(=O)COc1ccc(-c2nc3cc(NC(=O)[C@H](C)Oc4cccc(Cl)c4Cl)ccc3o2)cc1,3.1 µM
4,C[C@H](Oc1cccc(Cl)c1Cl)C(=O)Nc1ccc2oc(-c3ccc(C(=O)O)cc3)nc2c1,25 µM
